Consider twelve compounds from patent publication US20260138969A1 (Korea Research Institute of Chemical Technology, priority 2023, published 2026).

The first assay deals with T1, recombinant human ASK1 protein (Homo sapiens, UniProt Q99683).
T1 sequence (Q99683 1-1374): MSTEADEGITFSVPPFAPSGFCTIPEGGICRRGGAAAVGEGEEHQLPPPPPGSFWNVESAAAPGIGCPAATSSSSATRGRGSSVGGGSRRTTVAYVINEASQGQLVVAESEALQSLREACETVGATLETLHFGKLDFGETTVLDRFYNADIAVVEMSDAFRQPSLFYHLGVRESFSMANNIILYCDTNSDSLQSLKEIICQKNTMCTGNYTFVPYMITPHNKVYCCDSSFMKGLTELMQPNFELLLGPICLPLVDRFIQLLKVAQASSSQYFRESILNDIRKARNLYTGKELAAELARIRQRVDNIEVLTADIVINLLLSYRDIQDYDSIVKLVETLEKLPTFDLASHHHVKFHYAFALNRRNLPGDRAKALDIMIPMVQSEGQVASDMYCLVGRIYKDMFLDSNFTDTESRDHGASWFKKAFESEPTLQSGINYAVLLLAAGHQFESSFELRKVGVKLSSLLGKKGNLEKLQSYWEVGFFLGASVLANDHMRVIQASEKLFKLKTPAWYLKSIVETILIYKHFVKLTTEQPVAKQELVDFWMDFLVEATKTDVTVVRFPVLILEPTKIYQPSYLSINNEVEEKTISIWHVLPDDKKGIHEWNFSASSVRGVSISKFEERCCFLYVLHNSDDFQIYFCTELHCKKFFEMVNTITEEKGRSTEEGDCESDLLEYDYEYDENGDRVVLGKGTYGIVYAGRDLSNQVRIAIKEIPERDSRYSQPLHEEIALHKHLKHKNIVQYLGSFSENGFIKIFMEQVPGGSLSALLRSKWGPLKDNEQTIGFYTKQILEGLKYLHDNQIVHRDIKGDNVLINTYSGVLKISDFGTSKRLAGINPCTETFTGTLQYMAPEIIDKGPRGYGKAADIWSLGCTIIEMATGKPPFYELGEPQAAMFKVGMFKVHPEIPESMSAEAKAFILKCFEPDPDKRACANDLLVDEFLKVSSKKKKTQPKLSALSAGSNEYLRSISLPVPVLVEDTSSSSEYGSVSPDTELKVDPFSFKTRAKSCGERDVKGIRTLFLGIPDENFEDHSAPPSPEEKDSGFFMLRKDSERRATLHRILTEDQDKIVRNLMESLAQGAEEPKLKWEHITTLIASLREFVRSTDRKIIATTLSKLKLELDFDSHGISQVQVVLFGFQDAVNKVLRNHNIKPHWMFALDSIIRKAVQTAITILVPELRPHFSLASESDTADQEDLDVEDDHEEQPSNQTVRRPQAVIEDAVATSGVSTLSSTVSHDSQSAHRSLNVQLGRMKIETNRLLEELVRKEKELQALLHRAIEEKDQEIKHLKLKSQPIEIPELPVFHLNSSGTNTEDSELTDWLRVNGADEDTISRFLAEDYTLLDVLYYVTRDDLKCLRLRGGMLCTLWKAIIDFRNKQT
The experiment in a line: Evaluation of ASK1 inhibition activity ([gamma-33P]-ATP, scintillation counting). It counts as biochemical.
Conditions: not given
How it is done: The recombinant human ASK1 protein was initiated by adding a mixture of Mg/ATP to the reaction solution (8 mM MOPS PH 7.0, 0.2 mM EDTA, 0.33 mg/mL myelin basic protein, 10 mM Mg Acetate and [gamma-33P]-ATP), and the reaction was terminated by adding 0.5% phosphoric acid after 40 min at room temperature.
Regarding `Cc1cc(F)c(C(=O)Nc2cccc(-n3nnc4c3CCCCCC4)n2)cc1-n1cnc(C2CC2)c1` [Example 5, 5-(4-cyclopropyl-1H-imidazole-1-yl)-2-fluoro-N-(6-(4,5,6,7,8,9-hexahydro-1H-cycloocta[d][1,2,3]triazole-1-yl)pyridine-2-yl)-4-methylbenzamide], the IC50 is 198 nM.

Still in this assay, the particulars now being: 0.5 uM; activity of group without compound set at 100%; read-out: Remaining kinase activity (%) at 0.5 uM.
Turning to `CCOc1cc(C)c(-n2cnc(C3CC3)c2)cc1C(=O)Nc1cccc(-n2nnc3c2CCCC3)n1` [Example 11, 5-(4-cyclopropyl-1H-imidazol-1-yl)-2-ethoxy-4-methyl-N-(6-(4,5,6,7-tetrahydro-1H-benzo[d][1,2,3]triazol-1-yl)pyridin-2-yl)benzamide], the remaining activity at 0.5 µM came out at 29%.

Consider `Cc1cc(OC(C)C)c(C(=O)Nc2cccc(-n3nnc4c3CCC4)n2)cc1-n1cnc(C2CC2)c1` [Example 12, 5-(4-cyclopropyl-1H-imidazol-1-yl)-N-(6-(5,6-dihydrocyclopenta[d][1,2,3]triazol-1 (4H)-yl)pyridin-2-yl)-2-isopropoxy-4-methylbenzamide], for which the remaining activity at 0.5 µM is 0%.

Take `O=C(Nc1cccc(-n2nnc3c2CCCC3)n1)c1cc(-n2cnc(C3CC3)c2)ccc1OC1CC1` [Example 23, 2-cyclopropoxy-5-(4-cyclopropyl-1H-imidazol-1-yl)-N-(6-(4,5,6,7-tetrahydro-1H-benzo[d][1,2,3]triazol-1-yl)pyridin-2-yl)benzamide]: the remaining activity at 0.5 µM was 38%.

Take `O=C(Nc1cccc(-n2nnc3c2CCC3)n1)c1cc(-n2cnc(C3CC3)c2)ccc1OC(F)(F)F` [Example 24, 5-(4-cyclopropyl-1H-imidazol-1-yl)-N-(6-(5,6-dihydrocyclopenta[d][1,2,3]triazol-1 (4H)-yl)pyridin-2-yl)-2-(trifluoromethoxy)benzamide]: the remaining activity at 0.5 µM was found to be 5%.

With `O=C(Nc1cccc(-n2nnc3c2CCCC3)n1)c1cc(-n2cnc(C3CC3)c2)ccc1OC(F)F` [Example 27], the remaining activity at 0.5 µM was 4%.

Regarding `Cc1cc(OC(F)F)c(C(=O)Nc2cccc(-n3nnc4c3CCC4)n2)cc1-n1cnc(C2CC2)c1` [Example 14, 5-(4-cyclopropyl-1H-imidazol-1-yl)-2-(difluoromethoxy)-N-(6-(5,6-dihydrocyclopenta[d][1,2,3]triazol-1 (4H)-yl)pyridin-2-yl)-4-methylbenzamide], the remaining activity at 0.5 µM came to 1%.

For the compound `COc1cc(C)c(-n2cnc(C3CC3)c2)cc1C(=O)Nc1cccc(-n2nnc3c2CCCC3)n1` [Example 9, 5-(4-cyclopropyl-1H-imidazol-1-yl)-2-methoxy-4-methyl-N-(6-(4,5,6,7-tetrahydro-1H-benzo[d][1,2,3]triazol-1-yl)pyridin-2-yl)benzamide], the remaining activity at 0.5 µM stood at 0%.

With `O=C(Nc1cccc(-n2nnc3c2CCC3)n1)c1cc(-n2cnc(C3CC3)c2)ccc1OC(F)F` [Example 26, 5-(4-cyclopropyl-1H-imidazol-1-yl)-2-(difluoromethoxy)-N-(6-(5,6-dihydrocyclopenta[d][1,2,3]triazol-1 (4H)-yl)pyridin-2-yl)benzamide], the remaining activity at 0.5 µM came out at 1%.

Consider `CC(C)Oc1ccc(-n2cnc(C3CC3)c2)cc1C(=O)Nc1cccc(-n2nnc3c2CCCC3)n1` [Example 19, 5-(4-cyclopropyl-1H-imidazol-1-yl)-2-isopropoxy-N-(6-(4,5,6,7-tetrahydro-1H-benzo[d][1,2,3]triazol-1-yl)pyridin-2-yl)benzamide], for which the remaining activity at 0.5 µM was found to be 9%.

As for `COc1ccc(-n2cnc(C3CC3)c2)cc1C(=O)Nc1cccc(-n2nnc3c2CCCC3)n1` [Example 7, 5-(4-cyclopropyl-1H-imidazol-1-yl)-2-methoxy-N-(6-(4,5,6,7-tetrahydro-1H-benzo[d][1,2,3]triazol-1-yl)pyridin-2-yl)benzamide], the remaining activity at 0.5 µM was found to be 2%.

Turning to `O=C(Nc1cccc(-n2nnc3c2CCC3)n1)c1cc(-n2cnc(C3CC3)c2)ccc1OCC(F)(F)F` [Example 20, 5-(4-cyclopropyl-1H-imidazol-1-yl)-N-(6-(5,6-dihydrocyclopenta[d][1,2,3]triazol-1 (4H)-yl)pyridin-2-yl)-2-(2,2,2-trifluoroethoxy)benzamide], the remaining activity at 0.5 µM turned out to be 3%.

As usually defined, the IC50 is the concentration needed to halve the response being measured. As a reminder, the remaining activity is what remains of the control signal, in per cent.
